Marks after values point to notes of the source that are not given here.
Experiments:
[1] = tested on: Campylobacter; assay: Campylobacter carriage in chickens, cfu/g of droppings and caeca at day 42 (Example 1); assay type: in vivo
Description: A study was performed to evaluate growth promotion and reduction of Campylobacter carriage using FeQ and FeTyr in Ross 308 male broilers with 7 treatment groups. Each treatment group comprised four replicates of 10 birds per pen (40 birds/treatment group and 4 pens of 10 birds/treatment group), with 2 control groups and 5 test groups. All the test groups and one of the control groups were exposed at day 20 of the trial to dirty litter, which tested positive for Campylobacter. This method was used to provide a more natural method to Campylobacter challenge the birds. Thus there was a positive control where one treatment group was challenged with Campylobacter and one negative control group where the birds were not challenged, and five treatment groups that were all challenged with Campylobacter. The total number of birds used in the 7 treatment groups was 280. Treatment group 1 was a negative control where birds just received the commercial feed, and were not challenged with dirty litter containing Campylobacter. Treatment group 2 was the positive control where the birds received the commercial feed, and were challenged with dirty litter containing Campylobacter at day 20. Treatment group 3 received 0.22 g/L of FeQ in their drinking water and 0.22 g/Kg FeQ in their feed during the entire trial, and was challenged with dirty litter containing Campylobacter at day 20. Treatment group 5 received 0.22 g/L of FeQ in their drinking water during the entire trial, and was challenged with dirty litter containing Campylobacter at day 20. Treatment group 6 received 0.22 g/kg FeQ in their feed during the entire trial, and was challenged with dirty litter containing Campylobacter at day 20. Treatment group 7 received 0.022 g/L FeQ in their drinking water during the entire trial, and was challenged with dirty litter containing Campylobacter at day 20. Treatment group 8 received 0.02 g/L FeTyr in their drinking water during the entire trial, and was challenged with dirty litter containing Campylobacter at day 20. The FeTyr was pre-dissolved in DMSO, and diluted to provide a solution of 0.02 g/L of FeTyr in water. (An additional treatment group 4 was terminated due to solubility issues.)
Prior to challenging the chickens with dirty litter containing Campylobacter at day 20, each pen was tested for Campylobacter using cloacal swabs. All pens tested negative for Campylobacter prior to the challenge. At day 20, litter, which was naturally Campylobacter-contaminated, was tested to confirm the presence of Campylobacter, and then added (approximately 2 kg/pen) to the litter in all pens except in pens for treatment group 1 (the negative control). At day 28, the pen litter was sampled to confirm the presence or absence of Campylobacter. At day 41 and 42, caecal samples were taken from 3 birds per pen (12 birds per treatment group) and tested for Campylobacter enumeration. At day 42, digesta, fecal samples, and caecal content was taken from all birds, and pooled per pen. Two birds per pen were also taken from treatment groups 1-3, euthanized, and blood samples taken. Samples were analyzed for blood chemistry, including analysis for alkaline phosphatase, aspartate amino transferase, alanine amino transferase, gamma-glutamyl transferase, lactate dehydrogenase, total protein, albumin, globulin, amylase and glucose.

[2] = Dose ranging study of FeTyr (TYPLEX) in feed, zootechnical performance of broilers, dirty litter challenge at day 20 (Example 10); assay type: in vivo, Ross 308 male broilers; details: for AFI / AWG / MFCR / AFI/bird/period / AWG/bird/period: 0.22 g Q-PLEX/kg feed
Description: (§1) A study was performed to evaluate growth promotion and reduction of Campylobacter carriage using FeTyr in Ross 308 male broilers with 7 treatment groups. Each treatment group comprised eight replicates of 10 birds per pen (80 birds/treatment group), with 2 control groups and […]. All the test groups and both of the control groups were exposed at day 20 of the trial to dirty litter, which tested positive for Campylobacter. This method was used to provide a more natural method to Campylobacter challenge the birds. Thus there were two positive controls where each treatment group was challenged with Campylobacter, and five treatment groups that were all challenged with Campylobacter. The total number of birds used in the 7 treatment groups was 560.
Treatment group 1 was a positive control where birds just received the commercial feed, and were challenged with dirty litter containing Campylobacter at day 20. Treatment group 2 received 0.01 g/kg of TYPLEX (FeTyr) in their feed, and were challenged with dirty litter containing Campylobacter at day 20. Treatment group 3 received 0.02 g/kg of TYPLEX (FeTyr) in their feed, and was challenged with dirty litter containing Campylobacter at day 20. Treatment group 4 received 0.05 g/kg of TYPLEX (FeTyr) in their feed, and was challenged with dirty litter containing Campylobacter at day 20. Treatment group 5 received 0.1 g/kg of TYPLEX (FeTyr) in their feed, and was challenged with dirty litter containing Campylobacter at day 20. Treatment group 6 received 0.2 g/kg of TYPLEX (FeTyr) in their feed, and was challenged with dirty litter containing Campylobacter at day 20. […] The birds were fed with a commercial three-phase feeding program using starter, grower and finisher feeds as described in Example 1. The birds were reared in floor pens to day 42, and fed starter, grower and finisher feed at day 0 to 11, 11 to 24, and 24 to 42 days, respectively. All birds were weighed individually and feed weigh backs recorded per pen at day 0, 11, 21, 24 and 42 days.
(§2) At day 20, litter, which was naturally Campylobacter-contaminated, was tested to confirm the presence of Campylobacter, and then added (approximately 2 kg/pen) to the litter in all pens. At day 42, caecal samples were taken and tested for Campylobacter, E. coli and Salmonella enumeration.
In order to minimize risk of cross-contamination, standard industry biosecurity measures were used including: disinfecting boots, changing overshoes and gloves between pens/treatments, entering Campylobacter negative pens before entering Campylobacter positive pens, and leaving adjacent pens empty. Daily health, culls, and mortality were recorded. All bird weights were recorded at 0, 11, 21, 24, 33 and 42 days. Weight gains, feed intake and feed conversion ratio (FCR) were derived for each feeding period.

[3] = tested on: E. coli; assay: E. coli cfu/g of caeca at day 42 (Example 10); assay type: in vivo
Description: as §1, §2

## O=C([O-])C1(O)CC(O)C(O)C(O)C1.O=C([O-])C1(O)CC(O)C(O)C(O)C1.O=C([O-])C1(O)CC(O)C(O)C(O)C1.[Fe+3] (stereo not shown) [FeQ, Ferric Quinate]
[1]; 0.022 g/L FeQ in water, treatment group 7, considered likely experimental error
  Campylobacter cfu/g of bird droppings at day 42 (FIG. 3), low concentration: less of an effect than the other treatment groups
[1]; treatment group 7: 0.022 g/L FeQ in water
  Campylobacter cfu/g of caeca samples at day 42 (FIG. 4), low concentration: highly beneficial effect
[1]; treatment groups 3 and 5-8
  Campylobacter cfu/g of caeca samples at day 42 compared with positive control (FIG. 4): positive effect on reducing Campylobacter infection
[1]; treatment groups 3 and 6-8
  Campylobacter cfu/g of bird droppings at day 42 compared with positive control (FIG. 3): positive effect on reducing Campylobacter infection
[2]; 0-25 d of age
  AFI: 1.898 kg
  AWG: 1.422^c kg
  MFCR: 1.335^a feed:gain
[2]; 0-35 d of age
  AFI/bird/period: 3.815 kg
  AWG/bird/period: 0.668 kg
  MFCR: 1.458^a feed:gain
[2]; 0-42 d of age
  AFI/bird/period: 5.279 kg
  AWG/bird/period: 3.448^ab kg
  MFCR: 1.547^a feed:gain
[2]; 35 to 42 d of age
  AFI: 1.464 kg
  AWG: 0.790 kg
  MFCR: 1.864 feed:gain
[2]; T7 0.22 g Q-PLEX/kg feed
  ABW (average body weight/pen) 1 d: 0.040 kg
  ABW (average body weight/pen) 11 d: 0.350^b kg
  ABW (average body weight/pen) 20 d: 0.968 kg
  ABW (average body weight/pen) 25 d: 1.463^c kg
  ABW (average body weight/pen) 28 d: 1.836^b kg
  ABW (average body weight/pen) 30 d: 2.031^b kg
  ABW (average body weight/pen) 35 d: 2.698^ab kg
  ABW (average body weight/pen) 42 d: 3.488^ab kg
  AFI (mean feed intake/pen) 1 to 11 d: 0.357^b kg
  AFI (mean feed intake/pen) 11 to 20 d: 0.836^ab kg
  AFI (mean feed intake/pen) 11 to 25 d: 1.541 kg
  AFI (mean feed intake/pen) 20 to 35 d: 2.622 kg
  AFI (mean feed intake/pen) 25-42 d: 3.381 kg
  AFI/bird/period 20-25 d: 0.705 kg
  AFI/bird/period 25-35 d: 1.917 kg
  AWG (mean weight gain/pen) 1 to 11 d: 0.310^b kg
  AWG (mean weight gain/pen) 11 to 20 d: 0.618 kg
  AWG (mean weight gain/pen) 11 to 25 d: 1.113^b kg
  AWG (mean weight gain/pen) 20 to 35 d: 1.730^ab kg
  AWG (mean weight gain/pen) 25-42 d: 2.026^ab kg
  AWG/bird/period 20-25 d: 0.495 kg
  AWG/bird/period 25-35 d: 1.236^abc kg
  MFCR 1 to 11 d: 1.150^x feed:gain
  MFCR 11 to 20 d: 1.357^ab feed:gain
  MFCR 11 to 25 d: 1.387^a feed:gain
  MFCR 20-25 d: 1.430^a feed:gain
  MFCR 20 to 35 d: 1.554^a feed:gain
  MFCR 25-35 d: 1.607^ab feed:gain
  MFCR 25-42 d: 1.703^ab feed:gain
[2]; all treatment groups, in feed
  MFCR at day 42 compared to control group (FIG. 13): improved MFCR values
  average body weight at day 42 compared with control group (FIG. 12): higher average body weight
[3]; in feed
  E. coli cfu/g of caeca at day 42 (FIG. 16): positive effect on reducing Campylobacter infection
[3]; poultry data
  levels of E. coli in poultry upon treatment: lower levels of E. coli

From patent publication US10653658B2, “Biofilm inhibiting compositions enhancing weight gain in livestock” (Akeso Biomedical, Inc., priority 2015, dated 2020)
